Source: EP0863702B1, “FUNGICIDAL MIXTURE” (BASF AKTIENGESELLSCHAFT, priority 1995, dated 1997)

What was measured:
[1] = system: Botrytis cinerea; experiment: Efficacy against Botrytis cinerea on paprika seedlings (protective spray); type: in vivo; details: single active, Paprikasämlinge, 5 Tage, 22 bis 24°C
Experimental: Paprikasämlinge der Sorte "Neusiedler Ideal Elite" wurden, nachdem sich 4 bis 5 Blätter gut entwickelt hatten, mit wäßrigen Suspensionen, die 80 % Wirkstoff und 20 % Emulgiermittel in der Trockensubstanz enthielten, tropfnaß gespritzt. Nach dem Antrocknen des Spritzbelages wurden die Pflanzen mit einer Konidienaufschwemmung des Pilzes Botrytis cinerea besprüht und bei 22 bis 24°C in eine Kammer mit hoher Luftfeuchtigkeit gestellt. Nach 5 Tagen hatte sich die Krankheit auf den unbehandelten Kontrollpflanzen so stark entwickelt, daß die entstandenen Blattnekrosen den überwiegenden Teil der Blätter bedeckten.
(§1) Die visuell ermittelten Werte für den Prozentanteil befallener Blattfläche wurden in Wirkungsgrade als % der unbehandelten Kontrolle umgerechnet. Wirkungsgrad 0 ist gleicher Befall wie in der unbehandelten Kontrolle, Wirkungsgrad 100 ist 0 % Befall. Die zu erwartenden Wirkungsgrade für Wirkstoffkombinationen wurden nach der Colby-Formel ermittelt (S. R. Colby "Calculating synergistic and antagonistic responses of herbicide combinations", Weeds 15, Seiten 20 bis 22 (1967)) und mit den beobachteten Wirkungsgraden verglichen.

[2] = system: Botrytis cinerea; experiment: Efficacy against Botrytis cinerea on slices of green paprika fruit; type: in vivo; details: single active, Paprikaschoten-Scheiben, 4 Tage, 18°C
Experimental: Scheiben von grünen Paprikaschoten wurden mit wäßriger Wirkstoffaufbereitung, die 80 % Wirkstoff und 20 % Emulgiermittel in der Trockensubstanz enthielt, tropfnaß besprüht. 2 Stunden nach dem Antrocknen des Spritzbelages wurden die Fruchtscheiben mit einer Sporensuspension von Botrytis cinerea, die 1,7 x 10^6 Sporen pro ml einer 2 %igen Biomalzlösung enthielt, inokuliert. Die inokulierten Fruchtscheiben wurden anschließend in feuchten Kammern bei 18°C für 4 Tage aufgestellt. Dann erfolgte visuell die Auswertung der Botrytis-Entwicklung auf den befallenen Fruchtscheiben.
as §1

SMILES	Wirkungsgrad ([1]; 25 ppm in der Spritzbrühe)	Wirkungsgrad ([1]; 100 ppm in der Spritzbrühe)	Wirkungsgrad ([2]; 100 ppm in der Spritzbrühe)	Wirkungsgrad ([2]; 25 ppm in der Spritzbrühe)
CC(C)(CCl)C(=O)Nc1ccc(O)c(Cl)c1Cl [(A)]	40 % der unbehandelten Kontrolle	84 % der unbehandelten Kontrolle	20 % der unbehandelten Kontrolle	
CC1(C(=O)Nc2ccc(O)c(Cl)c2Cl)CC2CCC1C2 (centres unmarked) [(B)]	65 % der unbehandelten Kontrolle	80 % der unbehandelten Kontrolle	25 % der unbehandelten Kontrolle	10 % der unbehandelten Kontrolle
CC1(C(=O)Nc2ccc(O)c(Cl)c2Cl)CCCCC1 [(C)]	35 % der unbehandelten Kontrolle	70 % der unbehandelten Kontrolle	25 % der unbehandelten Kontrolle	30 % der unbehandelten Kontrolle
